Laboratory results reported in patent publication US9078897B1, “Concentrated, inhalable antibiotic formulation” (ARADIGM CORPORATION, priority 2006, dated 2015).

Columns and labels:
P. aeruginosa = settings: cited from earlier work
IL-1 = IL-1 levels in lungs after 14 days of inhalation; assay type: in vivo, rats; settings: then 28 day recovery evaluation
Excerpt: The explanation for this surprising effect may be that the presence of free ciprofloxacin in the lung attenuates the release of cytokines which attract macrophages into the lung.

levels of IL-1 (IL-1)	SMILES	activity against P. aeruginosa (P. aeruginosa)
	CC[C@H]1OC(=O)[C@H](C)[C@@H](O[C@H]2C[C@@](C)(OC)[C@@H](O)[C@H](C)O2)[C@H](C)[C@@H](O[C@@H]2O[C@H](C)C[C@H](N(C)C)[C@H]2O)[C@](C)(O)C[C@@H](C)CN(C)[C@H](C)[C@@H](O)[C@]1(C)O [azithromycin]	no direct activity
return to baseline values	O=C(O)c1cn(C2CC2)c2cc(N3CCNCC3)c(F)cc2c1=O [free ciprofloxacin, ciprofloxacin]	
	NC[C@H]1O[C@H](O[C@H]2[C@H](O)[C@@H](O[C@H]3O[C@H](CO)[C@@H](O)[C@H](N)[C@H]3O)[C@H](N)C[C@@H]2N)[C@H](N)C[C@@H]1O [tobramycin]	possesses activity
